From US9012411B2, “Formulations from derivatives of curcumin, paclitaxel, and aspirin” (Organomed Corporation, priority 2009, dated 2015)
pIC50: −log10 of the molar value. Where a name gives a salt, the structure may show the parent alone. Marks after values point to notes of the source that are not given here. Each block holds one molecule with its values, some of them ahead of it.

Legend:
[1] = test system: carrageenan induced rat paw edema; test: Carrageenan induced rat paw edema; assay type: in vivo, albino rats; settings: for Paw circumference: Example 8 (in vivo), 100 mg/kg oral with food
Experimental: Animals were kept under 13 hour day night cycle. Animals were given standard diet and water was provided ad, libitum. All animals were acclimatized for at least one week before the experimental session. Animals were divided in to five groups. Each group consisted of 8 animals.
Pedal inflammation in albino rats of either sex was produced according to the method of Winter et al., (Proc Soc Exp Biol Med 1963; 111: 544-7). An injection was made with 0.1 ml of 1% carrageenan (SIGMA) suspension into the right hind foot of each rat in the plantar region. […] Control group 5 was given 0.5 ml saline and groups 1 and 2 received aspirin. Increase in linear paw circumference was measured by tying a piece of cotton thread round the rat's paw, and noting the point of intersection of two ends on a meter scale. This was taken as an index of increase in paw volume, which is a measure of oedema (Bamgbose S O A, Noamesi B K. Planta Med 1981; 42: 392-6). Measurements were taken immediately before and at 1, 2 and 3 hours after carrageenan injection. The inhibitory activity was calculated according to the following formula (Awe S O, Olajide O A, Adeboye J O, Makinde J M. Indian J Pharmacol 1998; 30: 38-42):
[formula] Ct-Linear paw circumference 3 hours after carrageenan injection and Co-Linear paw circumference before carrageenan injection.
Albino rats obtained from central animal house of institute were used in the study. The animals were kept under 12 hour day night cycle. Animals were given standard diet and water was provided ad libitum. All animals were acclimatized for at least one week before the experimental session. Animals were divided into twelve groups in the carrageenan induced paw edema and tail flick method. Each group consisted of 4 animal each.
Animals were divided into eight groups in the carrageenan induced paw edema and tail flick method. Each group consisted of 6 animal each. The groups received various chemicals as given in Table 16 by oral administration with food. The following methods were used to evaluate the activity of the compositions:
Pedal inflammation in albino rats of either sex was produced according to the method of Winter et al. (Proc. Soc. Exp. Biol. Med., 1963, 111: 544-547). An injection was made with 0.1 ml of 1% carrageenan (SIGMA) suspension into the right hind foot of each rat in the plantar region. The various chemicals were given 30 minutes before carrageenan injection. Increase in linear paw circumference was measured by tying a piece of cotton thread round the rat's paw, and noting the point of intersection of two ends on a meter scale. This was taken as an index of increase in paw volume, which is a measure of edema (Bamgbose, S. O. A. & Noamesi, B. K., Planta. Med., 1981, 42: 392-396). Measurements were taken immediately before and at 1, 2 and 3 hours after carrageenan injection. The inhibitory activity was calculated according to the following formula (Awe S O, Olajide O A, Adeboye J O, Makinde J M. Indian J. Pharmacol., 1998; 30: 38-42):
Animals were divided into six groups in the carrageenan induced paw edema and tail flick method. Each group consisted of 8 animals each. Carrageenan-induced rat paw edema and Tail flick test were performed as discussed above in Example 8. Data were analyzed using analysis of variance (ANOVA) with Posthoc Bonferroni multi-comparisons. P<0.05 was considered as statistically significant.

[2] = test system: tail flick latency in rats; test: Tail flick test (analgesic activity); assay type: in vivo, albino rats; settings: for Tail flick latency time: 100 mg/kg oral with food
Experimental: Rats were screened for tail flip reaction with a cut-off time of 5 seconds. For each animal, the tail flick latency was obtained thrice before drug administration and mean was used as pre-drug latency. The tail flick latencies were measured at 0, 0.5, 1, 1.5, 2 and 3 h after administration chemicals.
Albino rats obtained from central animal house of institute were used in the study. The animals were kept under 12 hour day night cycle. Animals were given standard diet and water was provided ad libitum. All animals were acclimatized for at least one week before the experimental session. […] Each group consisted of 4 animal each.
Rats were screened for tail flip reaction with a cut-off time of 5 seconds. For each animal, the tail flick latency was obtained thrice before drug administration and mean was used as pre-drug latency. The tail flick latencies were measured at 0, 0.5, 1, 1.5, 2 and 3 h after administration of chemicals.
Each group consisted of 8 animals each. […] Data were analyzed using analysis of variance (ANOVA) with Posthoc Bonferroni multi-comparisons. P<0.05 was considered as statistically significant.

[3] = test system: breast (SKBR3) cancer cell line; test: Cellular inhibition, Alamar Blue; assay type: cell-based; settings: for inhibition of proliferation: skbr3, 48 hours
Experimental: (§1) Assays were performed with 3 cancer cell lines: breast (SKBR3), pancreatic (Panc1), prostate (PC-3) and 1 normal (nor-cancer) cell line (WI-38). Compounds were delivered to the cells after dissolving in DMSO. Five dilutions per compound were tested on a total of 4 cell lines in 96 well plates. Cellular inhibition was measured using Alamar Blue. After addition of compound a 24 hour and 48 hour time point using fluorescent plate reader was taken. Data from plate reader was analyzed in the following way: % inhibition bar graphs, % inhibition line graphs and IC50 growth inhibition values. In Tables 7-14, IC50 units are Molar (M).

[4] = test system: normal (non-cancer) cell line WI-38; test: Cellular inhibition, Alamar Blue; assay type: cell-based
Experimental: as §1

[5] = test system: pancreatic (Panc1) cancer cell line; test: Cellular inhibition, Alamar Blue; assay type: cell-based; settings: for inhibition of proliferation: Panc-1, 48 hours
Experimental: as §1

[6] = test system: prostate (PC-3) cancer cell line; test: Cellular inhibition, Alamar Blue; assay type: cell-based; settings: for inhibition of proliferation: PC-3, 48 hours
Experimental: as §1

[7] = test system: PANC-1 cells; test: GI50 (50% inhibition of cell growth), MTT assay, 72 hours; assay type: cell-based; settings: Homo sapiens, PANC-1, 72 h, 1 ng/ml to 10 ug/ml (Example 8)
Experimental: (§2) The cells were plated onto a 96 well plate and treated with different concentrations of the compounds from 1 ng/ml to 10 ug/ml for 72 hours followed by MTT assay.
(§3) The cells were plated onto a 96 well plate and treated with different concentrations of the compounds from 0.04 ng/ml to 400 ng/ml for 72 hours followed by MTT assay.

[8] = test system: PC3 cells; test: as above; assay type: cell-based; settings: Homo sapiens, PC-3, 72 h, PC3, 72 hours, 1 ng/ml to 10 ug/ml (Example 8)
Experimental: as §2, §3

[9] = In vitro enzyme hydrolysis in human serum (HPLC); assay type: in vitro ADME; settings: 25% human serum; for Test compound Rate: rate of decomposition of test compound; for Salicyclic acid Rate: rate of release of salicylic acid; for Test compound Concentration: remaining test compound; for Salicyclic acid Concentration: salicylic acid released from test compound, 0.2 mg/mL
Experimental: A 25% solution of human serum in 0.01M phosphate buffer was taken and the test compound (glucose aspirin or aspirin) were added to get a concentration of 0.2 mg/mL. The hydrolysis for the rate of release of salicylic acid and the rate of decomposition of the test compound were measured by HPLC.

[10] = test system: cancer cell lines SKBR3, Panc1, PC-3; test: Cellular inhibition, Alamar Blue, cancer cell lines taken together; assay type: cell-based; settings: 24 hours
Experimental: as §1

[11] = Example 5, 100 and 200 mg/kg i.p., rats

- pIC50 ([3]; Homo sapiens, SK-BR-3, SKBR3, 24 hours): 4.08
- pIC50 ([3]; Homo sapiens, SK-BR-3, SKBR3, 48 hours): 4.00
- pIC50 ([5]; Homo sapiens, PANC-1, PANC1, 24 hours): 4.38
- pIC50 ([5]; Homo sapiens, PANC-1, PANC1, 48 hours): 4.42
- pIC50 ([6]; PC3, 24 hours): 4.53
- pIC50 ([6]; PC3, 48 hours): 4.62
Compound: COc1cc(/C=C/C(=O)CC(=O)/C=C/c2ccc(O)c(OC)c2)ccc1O [Curcumin]
- Paw circumference ([1]; 0 h): 3.2 mm
- Paw circumference ([1]; 1 h): 3.68 mm
- Paw circumference ([1]; 2 h): 3.45 mm
- Paw circumference ([1]; 3 h): 3.53 mm
- Tail flick latency time ([2]; Example 8 (in vivo), 0 min): 2.67 s
- Tail flick latency time ([2]; Example 8 (in vivo), 30 min): 2.58 s
- Tail flick latency time ([2]; Example 8 (in vivo), 60 min): 2.8* seconds
- Tail flick latency time ([2]; Example 8 (in vivo), 90 min): 3.18* seconds
- Tail flick latency time ([2]; Example 8 (in vivo), 120 min): 3.03 s
- Tail flick latency time ([2]; Example 8 (in vivo), 180 min): 2.68 s
- Tail flick / analgesic activity (in words) ([2]; Example 8 (in vivo), oral, 100 mg/kg total (combinations 50 mg/kg each)): stronger activity at 60 and 90 minutes
- inhibition of normal lung cells (WI-38) ([4]; 24 hours, 100, 150 and 300 uM): over 20%
- pIC50 ([4]; Homo sapiens, WI-38, WI38, 24 hours): 3.00
- pIC50 ([4]; Homo sapiens, WI-38, WI38, 48 hours): 4.05

- GI50 [7]: 7.18 µg/mL
- GI50 [8]: 3.85 µg/mL
Compound: Nc1ccn([C@@H]2O[C@H](CO)[C@@H](O)C2(F)F)c(=O)n1 [NJ-92-1, Gemcitabine.HCl]

Compound: CC(=O)Oc1ccccc1C(=O)O[C@@H]([C@H](O)[C@H](O)CO)[C@@H](O)C=O [PMN II-168, 3-(2′-Acetyloxybenzoyl)-D-glucose]
- Hydrolysis rate in human serum (in words) ([9]; compared with aspirin): much slower rate than aspirin
- Average rate, test compound ([9]; decomposition of test compound, 0-180 min): -3.3e-07 M/min
- Test compound Rate ([9]; 0 min): 0 M/min
- Test compound Rate ([9]; 30 min): 1.91e-07 M/min
- Test compound Rate ([9]; 60 min): -2.24e-07 M/min
- Test compound Rate ([9]; 90 min): -3.62e-07 M/min
- Test compound Rate ([9]; 120 min): -2.96e-07 M/min
- Test compound Rate ([9]; 180 min): -4.38e-07 M/min
- Salicyclic acid Rate ([9]; 0 min): 0 M/min
- Salicyclic acid Rate ([9]; 30 min): 0 M/min
- Salicyclic acid Rate ([9]; 120 min): 9.11e-07 M/min
- Salicyclic acid Rate ([9]; 180 min): 1.97e-07 M/min
- Average rate, salicyclic acid ([9]; release of salicylic acid, 0-180 min): 9.08e-08 M/min
- Test compound Concentration ([9]; 0 min): 198 µM
- Test compound Concentration ([9]; 30 min): 203 µM
- Test compound Concentration ([9]; 60 min): 184 µM
- Test compound Concentration ([9]; 90 min): 165 µM
- Test compound Concentration ([9]; 120 min): 162 µM
- Test compound Concentration ([9]; 180 min): 119 µM
- Salicyclic acid Concentration ([9]; 0 min): 0 µM
- Salicyclic acid Concentration ([9]; 30 min): 0 µM
- Salicyclic acid Concentration ([9]; 60 min): 2.7 µM
- Salicyclic acid Concentration ([9]; 90 min): 2.75 µM
- Salicyclic acid Concentration ([9]; 120 min): 10.9 µM
- Salicyclic acid Concentration ([9]; 180 min): 35.4 µM
- Suppression of carrageenan-induced paw edema (in words) [1, 11]: significantly suppressed carrageenan-induced paw edema
- Tail flick latency / analgesic activity (in words) [2, 11]: significant analgesic activity
- pIC50 ([3]; SKBR3, 24 hours): 3.70
- pIC50 ([3]; SKBR3, 48 hours): 4.06
- inhibition of proliferation ([3]; 150 uM): ~60%
- inhibition of proliferation ([3]; 300 uM): approximately 90%
- pIC50 ([4]; WI38, 24 hours): 3.42
- pIC50 ([4]; WI38, 48 hours): 3.51
- pIC50 ([5]; PANC1, 24 hours): 3.40
- pIC50 ([5]; PANC1, 48 hours): 4.04
- inhibition of proliferation ([5]; 150 uM): ~60%
- inhibition of proliferation ([5]; 300 uM): ~70%
- pIC50 ([6]; PC3, 24 hours): 4.08
- pIC50 ([6]; PC3, 48 hours): 4.09
- inhibition of proliferation ([6]; 150 uM): ~65%
- inhibition of proliferation ([6]; 300 uM): ~85%
- inhibition of cancer cell growth ([10]; 300 uM): up to 60%
- inhibition of cancer cell growth ([10]; four lower concentrations): 20%
